Results taken from ChEMBL document CHEMBL4616635, “Investigations of antiproliferative and antioxidant activity of β-lactam morpholino-1,3,5-triazine hybrids” (Bioorg Med Chem, 2020).
Values after ≈ are worked out from the molar mass of the structure shown.

How the values were obtained:
[1] = Antioxidant activity assessed as DPPH radical scavenging activity measured for 5 mins by UV absorbance analysis; format: functional
[2] = test system: HepG2; assay: Antiproliferative activity against human HepG2 cells assessed as inhibition of cell growth after overnight incubation by MTT assay; format: functional, cell-based
[3] = test system: HEK293; assay: Cytotoxicity against human HEK293 cells assessed as inhibition of cell growth after overnight incubation by MTT assay; format: cell-based
[4] = test system: MCF7; assay: Antiproliferative activity against human MCF7 cells assessed as inhibition of cell growth after overnight incubation by MTT assay; format: functional, cell-based
[5] = test system: SW 1116; assay: Antiproliferative activity against human SW1116 cells assessed as inhibition of cell growth after overnight incubation by MTT assay; format: functional, cell-based
[6] = test system: Calf thymus DNA; assay: Binding affinity to calf thymus DNA assessed as hyperchromism by measuring blue shift in absorption spectra at 40 uM after 2 mins by UV-vis spectroscopy; format: nucleic-acid assay; conditions: Bos taurus
[7] = test system: Calf thymus DNA; assay: Binding affinity to calf thymus DNA assessed as binding constant at 40 uM after 2 mins by UV-vis spectroscopy; format: nucleic-acid assay; conditions: Bos taurus
[8] = test system: Calf thymus DNA; assay: Binding affinity to calf thymus DNA assessed as hypochromism by measuring red shift in absorption spectra at 68 uM after 2 mins by UV-vis spectroscopy; format: nucleic-acid assay; conditions: Bos taurus
[9] = test system: Calf thymus DNA; assay: Binding affinity to calf thymus DNA assessed as binding constant at 68 uM after 2 mins by UV-vis spectroscopy; format: nucleic-acid assay; conditions: Bos taurus
[10] = test system: Calf thymus DNA; assay: Binding affinity to calf thymus DNA assessed as hypochromism by measuring red shift in absorption spectra at 40 uM after 2 mins by UV-vis spectroscopy; format: nucleic-acid assay; conditions: Bos taurus

## CCOc1ccc(/N=C/c2ccc(Oc3nc(N4CCOCC4)nc(N4CCOCC4)n3)cc2)cc1
[1]
  IC50: 50 µg/mL (≈ 0.102 mM)
[2]
  IC50: > 100 µM
[3]
  IC50: > 100 µM
[4]
  IC50: > 100 µM
[5]
  IC50: > 100 µM

## O=C1N(c2ccc(Nc3nc(N4CCOCC4)nc(N4CCOCC4)n3)cc2)C(c2cccc([N+](=O)[O-])c2)C12c1ccccc1Oc1ccccc12 (configuration not stated)
[1]
  IC50: > 10000 µg/mL
[2]
  IC50: > 100 µM
[3]
  IC50: > 100 µM
[4]
  IC50: > 100 µM
[5]
  IC50: > 100 µM

## O=C1[C@@H](Oc2ccccc2)[C@@H](c2cccc([N+](=O)[O-])c2)N1c1ccc(Nc2nc(N3CCOCC3)nc(N3CCOCC3)n2)cc1 (relative stereo)
[1]
  IC50: > 10000 µg/mL
[6]
  Activity: -2 nm
[2]
  IC50: > 100 µM
[3]
  IC50: > 100 µM
[4]
  IC50: > 100 µM
[5]
  IC50: 1.98 µM
[7]
  Kb: 0.943 ×10⁴ /M

## O=C1[C@@H](Oc2ccc(Cl)cc2Cl)[C@@H](c2ccc(Oc3nc(N4CCOCC4)nc(N4CCOCC4)n3)cc2)N1c1ccc(Nc2nc(N3CCOCC3)nc(N3CCOCC3)n2)cc1 (relative stereo)
[1]
  IC50: > 10000 µg/mL
[2]
  IC50: > 100 µM
[3]
  IC50: > 100 µM
[4]
  IC50: > 100 µM
[5]
  IC50: > 100 µM

## COc1ccc(/N=C/c2ccc(Oc3nc(N4CCOCC4)nc(N4CCOCC4)n3)cc2)cc1
[1]
  IC50: 195 µg/mL (≈ 0.409 mM)
[2]
  IC50: > 100 µM
[3]
  IC50: > 100 µM
[4]
  IC50: > 100 µM
[5]
  IC50: > 100 µM

## O=[N+]([O-])c1ccc(/C=N/c2ccc(Nc3nc(N4CCOCC4)nc(N4CCOCC4)n3)cc2)cc1
[1]
  IC50: 195 µg/mL (≈ 0.398 mM)
[8]
  Activity: -4 nm
[2]
  IC50: > 100 µM
[3]
  IC50: > 100 µM
[9]
  Kb: 1.08 ×10⁵ /M
[4]
  IC50: > 100 µM
[5]
  IC50: 3.32 µM

## COc1cccc2c1C(=O)c1c(O)c3c(c(O)c1C2=O)C[C@@](O)(C(=O)CO)C[C@@H]3O[C@H]1C[C@H](N)[C@H](O)[C@H](C)O1 [DOXORUBICIN]
[2]
  IC50: 7.3 µM
[3]
  IC50: 6.1 µM
[5]
  IC50: 6.9 µM

## COc1ccc(N2C(=O)[C@@H](Oc3ccc(Cl)cc3)[C@H]2c2ccc(Oc3nc(N4CCOCC4)nc(N4CCOCC4)n3)cc2)cc1 (relative stereo)
[1]
  IC50: 6200 µg/mL (≈ 9.61 mM)
[2]
  IC50: > 100 µM
[3]
  IC50: > 100 µM
[4]
  IC50: > 100 µM
[5]
  IC50: 30 µM

## O=C1[C@@H](Oc2ccc(Cl)cc2)[C@@H](c2ccc(Oc3nc(N4CCOCC4)nc(N4CCOCC4)n3)cc2)N1c1ccc(Nc2nc(N3CCOCC3)nc(N3CCOCC3)n2)cc1
[1]
  IC50: > 10000 µg/mL
[2]
  IC50: > 100 µM
[3]
  IC50: > 100 µM
[4]
  IC50: > 100 µM
[5]
  IC50: > 100 µM

## O=C1[C@@H](Oc2ccccc2)[C@@H](c2ccc(Oc3nc(N4CCOCC4)nc(N4CCOCC4)n3)cc2)N1c1ccc(Nc2nc(N3CCOCC3)nc(N3CCOCC3)n2)cc1 (relative stereo)
[1]
  IC50: > 10000 µg/mL
[2]
  IC50: > 100 µM
[3]
  IC50: > 100 µM
[4]
  IC50: > 100 µM
[5]
  IC50: > 100 µM

## CN(C)c1ccc(/N=C/c2ccc(Oc3nc(N4CCOCC4)nc(N4CCOCC4)n3)cc2)cc1
[1]
  IC50: 30 µg/mL (≈ 0.0613 mM)
[2]
  IC50: > 100 µM
[3]
  IC50: > 100 µM
[4]
  IC50: > 100 µM
[5]
  IC50: 15.6 µM

## Clc1ccc(/C=N/c2ccc(Nc3nc(N4CCOCC4)nc(N4CCOCC4)n3)cc2)cc1
[1]
  IC50: 275 µg/mL (≈ 0.573 mM)
[2]
  IC50: > 100 µM
[3]
  IC50: > 100 µM
[4]
  IC50: > 100 µM
[5]
  IC50: 93.4 µM

## C(=N\c1ccc(Nc2nc(N3CCOCC3)nc(N3CCOCC3)n2)cc1)/c1ccc(Oc2nc(N3CCOCC3)nc(N3CCOCC3)n2)cc1
[1]
  IC50: > 10000 µg/mL
[2]
  IC50: > 100 µM
[3]
  IC50: > 100 µM
[4]
  IC50: > 100 µM
[5]
  IC50: > 100 µM

## O=C1[C@@H](Oc2ccc(Cl)cc2Cl)[C@@H](c2cccc([N+](=O)[O-])c2)N1c1ccc(Nc2nc(N3CCOCC3)nc(N3CCOCC3)n2)cc1 (relative stereo)
[1]
  IC50: > 10000 µg/mL
[2]
  IC50: > 100 µM
[3]
  IC50: > 100 µM
[4]
  IC50: > 100 µM
[5]
  IC50: > 100 µM

## CCOc1ccc(N2C(=O)[C@@H](Oc3ccccc3)[C@H]2c2ccc(Oc3nc(N4CCOCC4)nc(N4CCOCC4)n3)cc2)cc1 (relative stereo)
[1]
  IC50: 5900 µg/mL (≈ 9.44 mM)
[2]
  IC50: > 100 µM
[3]
  IC50: > 100 µM
[4]
  IC50: > 100 µM
[5]
  IC50: > 100 µM

## O=C1[C@@H](Oc2ccc(Cl)cc2)[C@@H](c2ccc(Cl)cc2)N1c1ccc(Nc2nc(N3CCOCC3)nc(N3CCOCC3)n2)cc1 (relative stereo)
[1]
  IC50: > 10000 µg/mL
[2]
  IC50: > 100 µM
[3]
  IC50: > 100 µM
[4]
  IC50: > 100 µM
[5]
  IC50: > 100 µM

## O=C1[C@@H](Oc2ccc(Cl)cc2)[C@@H](c2cccc([N+](=O)[O-])c2)N1c1ccc(Nc2nc(N3CCOCC3)nc(N3CCOCC3)n2)cc1 (relative stereo)
[1]
  IC50: > 10000 µg/mL
[2]
  IC50: > 100 µM
[3]
  IC50: > 100 µM
[4]
  IC50: > 100 µM
[5]
  IC50: 100 µM

## COc1ccc(N2C(=O)[C@@H](Oc3ccc(Cl)cc3Cl)[C@H]2c2ccc(Oc3nc(N4CCOCC4)nc(N4CCOCC4)n3)cc2)cc1 (relative stereo)
[1]
  IC50: 9600 µg/mL (≈ 14.1 mM)
[2]
  IC50: > 100 µM
[3]
  IC50: > 100 µM
[4]
  IC50: > 100 µM
[5]
  IC50: 2.7 µM

## O=C1[C@@H](Oc2ccc(Cl)cc2Cl)[C@@H](c2ccc([N+](=O)[O-])cc2)N1c1ccc(Nc2nc(N3CCOCC3)nc(N3CCOCC3)n2)cc1 (relative stereo)
[1]
  IC50: 5800 µg/mL (≈ 8.36 mM)
[2]
  IC50: > 100 µM
[3]
  IC50: > 100 µM
[4]
  IC50: > 100 µM
[5]
  IC50: 35.7 µM

## O=C1N(c2ccc(Nc3nc(N4CCOCC4)nc(N4CCOCC4)n3)cc2)C(c2ccc([N+](=O)[O-])cc2)C12c1ccccc1Oc1ccccc12 (configuration not stated)
[1]
  IC50: > 10000 µg/mL
[2]
  IC50: > 100 µM
[3]
  IC50: > 100 µM
[4]
  IC50: > 100 µM
[5]
  IC50: > 100 µM

## O=C1[C@@H](Oc2ccccc2)[C@@H](c2ccc([N+](=O)[O-])cc2)N1c1ccc(Nc2nc(N3CCOCC3)nc(N3CCOCC3)n2)cc1 (relative stereo)
[1]
  IC50: > 10000 µg/mL
[2]
  IC50: > 100 µM
[3]
  IC50: > 100 µM
[4]
  IC50: > 100 µM
[5]
  IC50: 17.5 µM

## O=C1[C@@H](Oc2ccc(Cl)cc2)[C@@H](c2ccc([N+](=O)[O-])cc2)N1c1ccc(Nc2nc(N3CCOCC3)nc(N3CCOCC3)n2)cc1 (relative stereo)
[1]
  IC50: > 10000 µg/mL
[2]
  IC50: > 100 µM
[3]
  IC50: > 100 µM
[4]
  IC50: > 100 µM
[5]
  IC50: 4.88 µM
[7]
  Kb: 2.6 ×10⁵ /M
[10]
  Activity: -5 nm

## O=[N+]([O-])c1cccc(/C=N/c2ccc(Nc3nc(N4CCOCC4)nc(N4CCOCC4)n3)cc2)c1
[1]
  IC50: 445 µg/mL (≈ 0.907 mM)
[2]
  IC50: > 100 µM
[3]
  IC50: > 100 µM
[4]
  IC50: > 100 µM
[5]
  IC50: 15.1 µM

## O=C1O[C@H]([C@@H](O)CO)C(O)=C1O [ASCORBIC ACID]
[1]
  IC50: 195 µg/mL (≈ 1.11 mM)

## O=C1[C@@H](Oc2ccccc2)[C@@H](c2ccc(Cl)cc2)N1c1ccc(Nc2nc(N3CCOCC3)nc(N3CCOCC3)n2)cc1 (relative stereo)
[1]
  IC50: 4800 µg/mL (≈ 7.82 mM)
[2]
  IC50: > 100 µM
[3]
  IC50: > 100 µM
[4]
  IC50: > 100 µM
[5]
  IC50: > 100 µM

## CCOc1ccc(N2C(=O)[C@@H](Oc3ccc(Cl)cc3)[C@H]2c2ccc(Oc3nc(N4CCOCC4)nc(N4CCOCC4)n3)cc2)cc1 (relative stereo)
[1]
  IC50: > 10000 µg/mL
[2]
  IC50: > 100 µM
[3]
  IC50: > 100 µM
[4]
  IC50: > 100 µM
[5]
  IC50: 1.53 µM

## O=C1N(c2ccc(Nc3nc(N4CCOCC4)nc(N4CCOCC4)n3)cc2)C(c2ccc(Cl)cc2)C12c1ccccc1Oc1ccccc12 (configuration not stated)
[1]
  IC50: > 10000 µg/mL
[6]
  Activity: -2 nm
[2]
  IC50: > 100 µM
[3]
  IC50: > 100 µM
[4]
  IC50: > 100 µM
[5]
  IC50: 2.06 µM
[7]
  Kb: 0.935 ×10⁵ /M

## O=C1[C@@H](Oc2ccc(Cl)cc2Cl)[C@@H](c2ccc(Cl)cc2)N1c1ccc(Nc2nc(N3CCOCC3)nc(N3CCOCC3)n2)cc1 (relative stereo)
[1]
  IC50: > 10000 µg/mL
[2]
  IC50: > 100 µM
[3]
  IC50: > 100 µM
[4]
  IC50: > 100 µM
[5]
  IC50: 86.2 µM

## COc1ccc(N2C(=O)C3(c4ccccc4Oc4ccccc43)C2c2ccc(Oc3nc(N4CCOCC4)nc(N4CCOCC4)n3)cc2)cc1 (configuration not stated)
[1]
  IC50: > 10000 µg/mL
[2]
  IC50: > 100 µM
[3]
  IC50: > 100 µM
[4]
  IC50: > 100 µM
[5]
  IC50: 38.4 µM

## COc1ccc(N2C(=O)[C@@H](Oc3ccccc3)[C@H]2c2ccc(Oc3nc(N4CCOCC4)nc(N4CCOCC4)n3)cc2)cc1
[1]
  IC50: > 10000 µg/mL
[2]
  IC50: > 100 µM
[3]
  IC50: > 100 µM
[4]
  IC50: > 100 µM
[5]
  IC50: > 100 µM
